This note sets out measurements from patent publication US20120142667A1, “PYRIMIDINE DERIVATIVES AS ZAP-70 INHIBITORS” (priority 2009, published 2012).

Counter-ions that a name gives are not always drawn. Bounds are passed on as bounds.

This assay concerns the target T1, ZAP-70 (Homo sapiens, UniProt P43403).
T1 construct: endogenous in cells; host or cells: cell lysate
T1 sequence (P43403 1-619): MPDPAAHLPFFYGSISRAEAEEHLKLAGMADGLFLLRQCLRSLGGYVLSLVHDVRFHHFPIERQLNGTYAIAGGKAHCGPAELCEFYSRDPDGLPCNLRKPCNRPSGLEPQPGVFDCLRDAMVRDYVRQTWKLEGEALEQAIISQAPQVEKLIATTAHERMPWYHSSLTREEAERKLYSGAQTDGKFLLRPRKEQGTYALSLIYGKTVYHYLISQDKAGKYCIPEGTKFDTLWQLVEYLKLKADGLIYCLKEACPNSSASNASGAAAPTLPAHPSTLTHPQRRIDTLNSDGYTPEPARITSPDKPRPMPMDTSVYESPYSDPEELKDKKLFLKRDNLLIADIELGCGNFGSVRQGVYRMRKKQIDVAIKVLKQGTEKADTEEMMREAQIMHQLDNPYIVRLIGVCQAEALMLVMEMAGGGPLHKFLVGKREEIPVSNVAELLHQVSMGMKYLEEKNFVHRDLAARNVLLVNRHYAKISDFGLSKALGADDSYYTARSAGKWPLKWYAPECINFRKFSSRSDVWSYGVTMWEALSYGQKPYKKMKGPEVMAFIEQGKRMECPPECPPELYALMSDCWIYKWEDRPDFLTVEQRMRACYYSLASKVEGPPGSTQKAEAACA
As to the kind of experiment: ZAP-70 kinobeads assay. To be noted: cell lysate. The class given is binding. On the procedure: The compounds of the present invention as described in the previous examples can be tested in the ZAP-70 kinobeads assay as described (EP-A 1862802 and WO-A 2007/137867). Briefly, test compounds (at various concentrations) and the affinity matrix with the immobilized aminopyrido-pyrimidine ligand 24 are added to cell lysate aliquots and allowed to bind to the proteins in the lysate sample. After the incubation time the beads with captured proteins are separated from the lysate. Bound proteins are then eluted and the presence ZAP-70 is detected and quantified using a specific antibody in a dot blot procedure and the Odyssey infrared detection system.

For the compound `COc1ccc(Nc2nc(Nc3cccc(OCCC(F)(F)F)c3C)ncc2Cl)c(NS(C)(=O)=O)c1` [Example 98, N-(2-((5-chloro-2-((2-methyl-3-(3,3,3-trifluoropropoxy)phenyl)amino)pyrimidin-4-yl)amino)-5-methoxyphenyl)methanesulfonamide], the IC50 (usually the point on the concentration scale where inhibition reaches its midpoint) lay in the range of 0.1 to 1 µM. Next, `COc1ccc(Nc2nc(Nc3cc(OC)c(OC)cc3OC)ncc2F)c(NS(C)(=O)=O)c1` [Example 25, N-(2-(5-fluoro-2-(2,4,5-trimethoxyphenylamino)pyrimidin-4-ylamino)-5-methoxyphenyl)methanesulfonamide]: 0.1 to 1 µM; `COc1cccc(Nc2ncc(Br)c(Nc3ccccc3NS(C)(=O)=O)n2)c1OC` [Example 9, N-(2-(5-bromo-2-(2,3-dimethoxyphenylamino)pyrimidin-4-ylamino)phenyl)methanesulfonamide]: 1 to 10 µM; `CCc1ccccc1Nc1ncc(Br)c(Nc2ccccc2NS(C)(=O)=O)n1` [Example 19, N-(2-(5-bromo-2-(2-ethylphenylamino)pyrimidin-4-ylamino)phenyl)methanesulfonamide hydrochloride]: 1 to 10 µM. `COc1ccc(Nc2nc(Nc3ccc(F)cc3C)ncc2Cl)c(NS(C)(=O)=O)c1` [Example 45, N-(2-(5-chloro-2-(4-fluoro-2-methylphenylamino)pyrimidin-4-ylamino)-5-methoxyphenyl)methanesulfonamide] returned an IC50 of 0.1 to 1 µM. Next, `COc1ccc(OCCO)cc1Nc1ncc(Cl)c(Nc2ccccc2NS(C)(=O)=O)n1` [Example 109, N-(2-(5-chloro-2-(5-(2-hydroxyethoxy)-2-methoxyphenylamino)pyrimidin-4-ylamino)phenyl)methanesulfonamide]: 0.1 to 1 µM; `COc1ccc(Nc2nc(Nc3nc(OC)ccc3Cl)ncc2Cl)c(NS(C)(=O)=O)c1` [Example 99, N-(2-(5-chloro-2-(3-chloro-6-methoxypyridin-2-ylamino)pyrimidin-4-ylamino)-5-methoxyphenyl)methanesulfonamide]: 1 to 10 µM. Turning to `COC(=O)CCc1ccc(OC)c(Nc2ncc(Cl)c(Nc3ccc(OC)cc3NS(C)(=O)=O)n2)c1` [Example 115, Methyl 3-(3-(5-chloro-4-(4-methoxy-2-(methylsulfonamido)phenylamino)pyrimidin-2-ylamino)-4-methoxyphenyl)propanoate], the IC50 fell in the range of 1 to 10 µM. `COc1ccc(C)c(Nc2ncc(F)c(Nc3ccccc3NS(C)(=O)=O)n2)c1` [Example 13, N-(2-(5-fluoro-2-(5-methoxy-2-methylphenylamino)pyrimidin-4-ylamino)phenyl)methanesulfonamide] returned an IC50 of 1 to 10 µM. Next, `COc1ccc(Nc2nc(Nc3cnc(O)cc3OC)ncc2Cl)c(NS(C)(=O)=O)c1` [Example 78, N-(2-(5-chloro-2-(6-hydroxy-4-methoxypyridin-3-ylamino)pyrimidin-4-ylamino)-5-methoxyphenyl)methanesulfonamide]: no more than 0.1 µM; `COc1ccc(Nc2nc(Nc3cc(OC)c(C)cc3OC)ncc2Cl)c(NS(C)(=O)=O)c1` [Example 47, N-(2-(5-chloro-2-(2,5-dimethoxy-4-methylphenylamino)pyrimidin-4-ylamino)-5-methoxyphenyl)methanesulfonamide]: 0.1 to 1 µM; `CS(=O)(=O)Nc1ccccc1Nc1nc(Nc2ccccc2O)ncc1Br` [Example 20, N-(2-(5-bromo-2-(2-hydroxyphenylamino)pyrimidin-4-ylamino)phenyl)methanesulfonamide hydrochloride]: 0.1 to 1 µM. On to `COc1ccccc1Nc1ncc(Br)c(Nc2ccccc2NS(C)(=O)=O)n1` [Example 21, N-(2-(5-bromo-2-(2-methoxyphenylamino)pyrimidin-4-ylamino)phenyl)methanesulfonamide hydrochloride], for which the IC50 fell in the range of 0.1 to 1 µM.

`COc1ccc(Nc2ncc(Cl)c(Nc3ccc(OC)cc3NS(C)(=O)=O)n2)c(O)c1` [Example 41, N-(2-(5-chloro-2-(2-hydroxy-4-methoxyphenylamino)pyrimidin-4-ylamino)-5-methoxyphenyl)methanesulfonamide] yielded an IC50 of 0.1 to 1 µM.

In turn, `COc1ccc(Nc2nc(Nc3cc(OC)c(F)cc3F)ncc2Cl)c(NS(C)(=O)=O)c1` [Example 58, N-(2-(5-chloro-2-(2,4-difluoro-5-methoxyphenylamino)pyrimidin-4-ylamino)-5-methoxyphenyl)methanesulfonamide hydrochloride] registered an IC50 of 0.1 to 1 µM. Next, `COc1cc(OCCCN2CCCCC2)ccc1Nc1ncc(Br)c(Nc2ccccc2NS(C)(=O)=O)n1` [Example 28, N-(2-(5-bromo-2-(2-methoxy-4-(3-(piperidin-1-yl)propoxy)phenylamino)pyrimidin-4-ylamino)phenyl)methanesulfonamide]: no more than 0.1 µM; `CS(=O)(=O)Nc1ccccc1Nc1nc(Nc2ccccc2F)ncc1F` [Example 1, N-(2-(5-fluoro-2-(2-fluorophenylamino)pyrimidin-4-ylamino)phenyl)methanesulfonamide]: 1 to 10 µM; `COc1ccc(Nc2ncc(Cl)c(Nc3ccc(OC)cc3NS(C)(=O)=O)n2)c(C)c1` [Example 35, N-(2-(5-chloro-2-(4-methoxy-2-methylphenylamino)pyrimidin-4-ylamino)-5-methoxyphenyl)methanesulfonamide]: 0.1 to 1 µM. `COc1ccc(Nc2nc(Nc3ccc(OCC(N)=O)cc3C)ncc2Cl)c(NS(C)(=O)=O)c1` [Example 90, 2-(4-((5-chloro-4-((4-methoxy-2-(methylsulfonamido)phenyl)amino)pyrimidin-2-yl)amino)-3-methylphenoxy)acetamide] yielded an IC50 of no more than 0.1 µM. Compound `COc1ccc(Nc2nc(Nc3cc(OCCO)c(OC)cc3C)ncc2Cl)c(NS(C)(=O)=O)c1` [Example 114, N-(2-(5-chloro-2-(5-(2-hydroxyethoxy)-4-methoxy-2-methylphenylamino)pyrimidin-4-ylamino)-5-methoxyphenyl)methanesulfonamide] returned an IC50 of 1 to 10 µM. Next, `COc1ccc(Nc2nc(Nc3cccc(OC)c3OC)ncc2Cl)c(NS(C)(=O)=O)c1` [Example 44, N-(2-(5-chloro-2-(2,3-dimethoxyphenylamino)pyrimidin-4-ylamino)-5-methoxyphenyl)methanesulfonamide]: 0.1 to 1 µM. Compound `COc1ccc(Nc2nc(Nc3cc(OCCO)ccc3OC)ncc2Br)c(NS(C)(=O)=O)c1` [Example 117, N-(2-((5-bromo-2-((5-(2-hydroxyethoxy)-2-methoxyphenyl)amino)pyrimidin-4-yl)amino)-5-methoxyphenyl)methanesulfonamide] registered an IC50 of no more than 0.1 µM.

In the case of `Cc1ccccc1Nc1ncc(Br)c(Nc2ccccc2NS(C)(=O)=O)n1` [Example 24, N-(2-(5-bromo-2-(2-methylphenylamino)pyrimidin-4-ylamino)phenyl)methanesulfonamide hydrochloride], the IC50 was 0.1 to 1 µM.

Compound `CS(=O)(=O)Nc1ccccc1Nc1nc(Nc2cc(F)ccc2F)ncc1F` [Example 10, N-(2-(2-(2,5-difluorophenylamino)-5-fluoropyrimidin-4-ylamino)phenyl)methanesulfonamide] returned an IC50 of 1 to 10 µM. Regarding `COc1ccc(OCCO)cc1Nc1ncc(Cl)c(Nc2cccc(F)c2NS(C)(=O)=O)n1` [Example 116, N-(2-(5-chloro-2-(5-(2-hydroxyethoxy)-2-methoxyphenylamino)pyrimidin-4-ylamino)-6-fluorophenyl)methanesulfonamide], the IC50 lay in the range of 0.1 to 1 µM. In the case of `COc1ccc(Nc2nc(Nc3cc(OCC(C)(C)O)ccc3OC)ncc2Cl)c(NS(C)(=O)=O)c1` [Example 104, N-(2-((5-chloro-2-((5-(2-hydroxy-2-methylpropoxy)-2-methoxyphenyl)amino)pyrimidin-4-yl)amino)-5-methoxyphenyl)methanesulfonamide], the IC50 fell in the range of 1 to 10 µM. Next, `COc1ccc(Nc2nc(Nc3cc(OC)cc(CO)c3OC)ncc2Cl)c(NS(C)(=O)=O)c1` [Example 96, N-(2-((5-chloro-2-((3-(hydroxymethyl)-2,5-dimethoxyphenyl)amino)pyrimidin-4-yl)amino)-5-methoxyphenyl)methanesulfonamide]: 0.1 to 1 µM; `COc1ccc(OCCO)cc1Nc1ncc(Cl)c(Nc2cccc(C)c2NS(C)(=O)=O)n1` [Example 118, N-(2-(5-chloro-2-(5-(2-hydroxyethoxy)-2-methoxyphenylamino)pyrimidin-4-ylamino)-6-methylphenyl)methanesulfonamide]: 0.1 to 1 µM; `CS(=O)(=O)Nc1ccccc1Nc1nc(Nc2ccccc2OC(F)F)ncc1Br` [Example 6, N-(2-(5-bromo-2-(2-(difluoromethoxy)phenylamino)pyrimidin-4-ylamino)phenyl)methanesulfonamide]: 1 to 10 µM.
